According to patent US20260034119A1, “5-METHOXY-N,N-[…][…], THEIR […], AND METHODS FOR TREATMENT OF NEUROLOGICAL, […], AND SUBSTANCE USE DISORDERS” (priority 2023, published 2026):

Assays:
C57BL/6J mice = assay: Sucrose preference test after chronic social defeat stress; assay type: in vivo, mouse; conditions: stressed mice
From the text: The sucrose preference test is a volitional two-bottle choice procedure in which mice are given the choice between consuming water and a 1% sucrose solution. This paradigm has been used extensively to assess the effects of stress-induced anhedonia. On day 10 of CSDS mice were individually housed and habituated to two bottles containing just water. Twenty-four hours later, following the SI test, one bottle was replaced with a 1% sucrose solution (w/v) made with water from the animal vivarium. Mice had ad libitum overnight access to both bottles and preference for sucrose over water was calculated as follows: [sucrose/(sucrose+water)*100]. Data were averaged from two independent experiments. A total of 27 mice were administered vehicle (9 control, 18 stress), 27 received 4-F, 5-MeO-PyrT (9 control, 18 stress), 15 received WAY-100635 (5 control, 10 stress), and 15 received 4-F, 5-MeO-PyrT+WAY-100635 (5 control, 10 stress). More animals were used for the stressed groups due to the inherent resilience of mice to social defeat stress (Krishnan et al. 2007). Analysis of different treatment conditions of control and stressed animals was done in GraphPad Prism using two-way ANOVA.

human 5-HT1A = target: T1, human 5-HT1A (Homo sapiens, UniProt P08908); assay: 5-HT1A-mediated cAMP reduction assay (GloSensor, HEK293-T); conditions: cAMP, 5-HT1A WT
T1 sequence (P08908 1-422): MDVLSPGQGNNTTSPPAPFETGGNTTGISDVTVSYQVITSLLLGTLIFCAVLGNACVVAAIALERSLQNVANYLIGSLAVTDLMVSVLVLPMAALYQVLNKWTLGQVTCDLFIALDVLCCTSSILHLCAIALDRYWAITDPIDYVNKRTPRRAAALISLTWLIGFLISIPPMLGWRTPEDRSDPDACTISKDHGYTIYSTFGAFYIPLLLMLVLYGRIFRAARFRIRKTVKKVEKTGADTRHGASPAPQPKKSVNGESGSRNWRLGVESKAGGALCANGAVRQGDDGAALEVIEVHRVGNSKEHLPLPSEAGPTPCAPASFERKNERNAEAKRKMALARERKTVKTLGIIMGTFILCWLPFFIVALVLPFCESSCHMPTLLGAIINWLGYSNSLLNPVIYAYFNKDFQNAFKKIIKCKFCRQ

COc1ccc2[nH]cc(CCN3CCCC3)c2c1F [4-F, 5-MeO-PyrT, 4-Fluoro, 5-methoxypyrrolidinyl-tryptamine]
effect on sucrose preference under WAY-100635 co-administration (C57BL/6J mice): reversed the effects | sucrose preference (C57BL/6J mice; relative to vehicle-treated animals): significantly increased sucrose preference | EC50 (human 5-HT1A): 0.03 nM | pEC50 (human 5-HT1A): 10.5
